Data published in US9363998B2, “Pesticidal composition and its use” (SUMITOMO CHEMICAL COMPANY, LIMITED, priority 2010, dated 2016).

Test system: Rhizoctonia solani
Assay: Soybean seed treatment test in soil contaminated by Rhizoctonia solani (disease control efficacy)
Format: in vivo, Rhizoctonia solani on soybean (variety: Natto shoryu)
Conditions: carboxamide compound alone 0.2 g/100 kg of seeds, no thiodicarb, soybean cultivated 20 days in soil contaminated by Rhizoctonia solani, efficacy vs non-treated plot
Procedure: A cyclohexanone solution (100 microL) containing prescribed amount (weight) of a test compound was applied on seeds of soybean (variety:Natto shoryu) (10 g) by using a rotary apparatus for seed treatment (Seed dresser, manufactured by Hans-Ulrich Hege GmbH).
One day after the application, plastic pot was filled with soil contaminated by Rhizoctonia solani, and the seeds treated with the test compounds were seeded in the soil and cultivated in a glass-greenhouse for 20 days (hereinafter referred to as “treated plot”).
Thereafter, the presence of disease caused by Rhizoctonia solani in the young plants which germinated from each seed was observed and disease severity was calculated according to the following calculation formula (1).
On the other hand, seeds of soybean which were not treated as above were cultivated in the same way as above (hereinafter referred to as “non-treated plot”) and the disease severity in “non-treated plot” was calculated in the same way as the above “treated plot”. On the basis of the above disease severity in “treated plot” and “non-treated plot”, efficacy in “treated plot” was evaluated according to the following calculation formula (2). […]

CC1CC(C)(C)c2cccc(NC(=O)c3cn(C)nc3C(F)F)c21 (stereo not shown) [carboxamide compound (1)]
efficacy (%): 47.4%
